Source: the supplement of paper PMC10307832

Tests used:
Assay in all cases: relative viability (nuclei count vs DMSO), 5 days (fraction); higher = more cells survive
Ricolinostat + OSI-027 = compound: O=C(CCCCCCNC(=O)c1cnc(N(c2ccccc2)c2ccccc2)nc1)NO [Ricolinostat] + COc1cccc2cc(-c3nc([C@H]4CC[C@H](C(=O)O)CC4)n4ncnc(N)c34)[nH]c12 [OSI-027] (partner 0.5 µM)
How it was run: (§1)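 Cells from lung cancer lines were seeded into 1536-well plates and, one day later, dosed by pin tool. Treatments were either a single drug or a fixed dose of an anchor drug with five library-drug doses (not always all listed) in √10 steps. After 5 days, nuclei were stained in a one-step fixation (final 0.05% Triton X-100, 1% formaldehyde, 1 ug/ml Hoechst) and counted on 4× images, and relative viability is the treated-to-vehicle nuclei ratio, as the median of duplicate plates.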

Ricolinostat + AZD7762 = compound: O=C(CCCCCCNC(=O)c1cnc(N(c2ccccc2)c2ccccc2)nc1)NO [Ricolinostat] + NC(=O)Nc1cc(-c2cccc(F)c2)sc1C(=O)N[C@H]1CCCNC1 [AZD7762] (partner 0.2 µM)
How it was run: as §1

[1] = compound: O=C(CCCCCCNC(=O)c1cnc(N(c2ccccc2)c2ccccc2)nc1)NO [Ricolinostat] + Nc1nc2[nH]cc(CCc3ccc(C(=O)N[C@@H](CCC(=O)O)C(=O)O)cc3)c2c(=O)[nH]1 [Pemetrexed] (partner 0.2 µM)
How it was run: as §1

TGX 221 + Linsitinib = compound: CC1=CN2C(=O)C=C(N=C2C(=C1)C(C)NC3=CC=CC=C3)N4CCOCC4 [TGX 221] + C[C@]1(O)C[C@@H](c2nc(-c3ccc4ccc(-c5ccccc5)nc4c3)c3c(N)nccn32)C1 [Linsitinib] (partner 1 µM)
How it was run: as §1

| Cell Line | relative viability (Ricolinostat + OSI-027; first compound 0.08 µM) | relative viability (Ricolinostat + OSI-027; first compound 0.253 µM) | relative viability (Ricolinostat + OSI-027; first compound 0.8 µM) | relative viability (Ricolinostat + OSI-027; first compound 2.53 µM) | relative viability (Ricolinostat + AZD7762; first compound 0.08 µM) | relative viability (Ricolinostat + AZD7762; first compound 0.253 µM) | relative viability (Ricolinostat + AZD7762; first compound 0.8 µM) | relative viability (Ricolinostat + AZD7762; first compound 2.53 µM) | relative viability ([1]; first compound 0.08 µM) | relative viability ([1]; first compound 0.253 µM) | relative viability ([1]; first compound 0.8 µM) | relative viability ([1]; first compound 2.53 µM) | relative viability (TGX 221 + Linsitinib; first compound 0.08 µM) | relative viability (TGX 221 + Linsitinib; first compound 0.253 µM) | relative viability (TGX 221 + Linsitinib; first compound 0.8 µM) | relative viability (TGX 221 + Linsitinib; first compound 2.53 µM) | relative viability (TGX 221 + Linsitinib; first compound 8 µM) |
| --- | --- | --- | --- | --- | --- | --- | --- | --- | --- | --- | --- | --- | --- | --- | --- | --- | --- |
| NCI-H2342 | 0.515 | 0.588 | 0.575 | 0.633 | 0.413 | 0.443 | 0.531 | 0.451 | 0.734 | 0.785 | 0.719 | 0.637 | – | – | – | – | – |
| SK-LU-1 | 0.321 | 0.431 | 0.353 | 0.269 | – | – | – | – | 1.06 | 0.97 | 0.949 | 0.864 | 0.96 | 0.904 | 0.922 | 1.06 | 0.858 |
| NCI-H2023 | – | 0.446 | 0.343 | 0.377 | – | – | – | – | 0.196 | 0.192 | 0.208 | 0.163 | 0.546 | 0.469 | 0.395 | 0.321 | 0.218 |
| NCI-H1299 | – | – | – | – | – | – | – | – | – | – | – | – | 0.976 | 1.04 | 1.04 | 0.902 | 0.969 |
| LOU-NH91 | 0.511 | 0.713 | 0.672 | 0.647 | – | 0.788 | 0.796 | 0.739 | – | 0.327 | 0.378 | 0.367 | 0.974 | 0.912 | 0.931 | 0.917 | 0.794 |
| LCLC-103H | 0.363 | 0.447 | 0.48 | 0.444 | 0.694 | 0.754 | 0.749 | 0.626 | 0.488 | 0.463 | 0.476 | 0.516 | 1.11 | 1.12 | 0.93 | 0.846 | 1.2 |
| SW 1573 | 0.588 | 0.612 | 0.647 | 0.501 | – | – | – | – | 0.857 | 0.742 | 1.07 | 0.864 | 0.686 | 0.747 | 0.685 | 0.768 | 0.544 |
| NCI-H1755 | 0.538 | 0.791 | 0.717 | 0.62 | 0.38 | 0.444 | 0.439 | 0.422 | 0.405 | 0.386 | 0.343 | 0.418 | 0.956 | 0.935 | 0.835 | 0.629 | 0.557 |
| COR-L 105 | – | 0.641 | 0.72 | 0.731 | – | – | – | – | 0.901 | 1.08 | 1.2 | 1.24 | 0.986 | 0.828 | 1.02 | 0.537 | 0.554 |
| NCI-H1793 | – | 0.252 | 0.284 | 0.221 | 0.387 | 0.414 | 0.314 | 0.206 | 0.603 | 0.76 | 0.815 | 0.811 | 0.768 | 0.616 | 0.531 | 0.467 | 0.474 |
| EMC-BAC-2 | 0.353 | 0.363 | 0.343 | 0.271 | 1.01 | 1.03 | 0.968 | 0.557 | 0.44 | 0.414 | 0.38 | 0.308 | 0.814 | 0.72 | 0.737 | 0.743 | 0.692 |
| H3255 | 0.496 | 0.582 | 0.55 | 0.629 | 0.717 | 0.759 | 0.75 | 0.849 | 0.494 | 0.544 | 0.553 | 0.557 | 0.841 | 0.847 | 0.892 | 0.912 | 0.859 |
| PC-14 | 0.728 | 0.72 | 0.769 | 0.511 | 0.26 | 0.321 | 0.306 | 0.26 | 0.147 | 0.139 | 0.141 | 0.195 | 0.95 | 0.866 | 0.898 | 0.904 | 0.874 |
| NCI-H661 | 0.501 | 0.669 | 0.712 | 0.652 | – | – | – | – | 0.832 | 0.879 | 0.9 | 0.776 | 0.486 | 0.472 | 0.363 | 0.457 | 0.362 |
| HARA | 0.295 | 0.479 | 0.401 | 0.175 | 0.35 | 0.256 | 0.184 | 0.236 | 0.254 | 0.256 | 0.213 | 0.274 | 1.05 | 0.853 | 0.883 | 0.766 | 0.754 |
| COR-L23 | 0.595 | 0.756 | 0.789 | 0.409 | – | – | – | – | 0.199 | 0.212 | 0.188 | 0.17 | 0.883 | 0.847 | 0.964 | 0.732 | 0.881 |
| SK-MES-1 | 0.407 | 0.561 | 0.534 | 0.558 | – | – | – | – | 0.878 | 0.982 | 0.876 | 0.91 | 1.05 | 1.03 | 1.03 | 0.913 | 0.573 |
| NCI-H1395 | – | 0.651 | 0.613 | 0.663 | – | 0.362 | 0.395 | 0.37 | – | 0.801 | 0.804 | 0.746 | 1 | 0.865 | 1.04 | 0.598 | 0.665 |
| NCI-H2170 | 0.656 | 0.718 | 0.725 | 0.891 | 0.815 | 0.858 | 1.01 | 0.928 | 0.247 | 0.242 | 0.281 | 0.244 | – | – | – | – | – |
| NCI-H647 | 0.546 | 0.508 | 0.489 | 0.543 | 0.35 | 0.359 | 0.322 | 0.241 | 0.192 | 0.18 | 0.174 | 0.134 | 0.915 | 0.948 | 1 | 0.749 | 0.611 |
| CAL-12T | 0.412 | 0.717 | 0.617 | 0.715 | 0.496 | 0.602 | 0.56 | 0.489 | 0.884 | 1.15 | 1.28 | 1.37 | 0.803 | 0.72 | 0.758 | 0.513 | 0.626 |
| 201T | 0.631 | 0.707 | 0.7 | 0.92 | 0.607 | 0.657 | 0.645 | 0.541 | 0.339 | 0.314 | 0.334 | 0.311 | – | 0.957 | 0.995 | 0.909 | 0.824 |
